Data set [1] has as its system MDA-MB-231. Description: Antiproliferative activity against human MDA-MB-231 cells after 72 hrs by MTT assay. It is filed as functional, cell-based. Conditions: MDA-MB-231, 72 h.
In data set [2] the test system is HCT-116. Description: Antiproliferative activity against human HCT116 cells after 72 hrs by MTT assay. The data set is classed as functional, cell-based. The conditions noted are these: HCT-116, 72 h.
Data set [3] deals with SK-OV-3. Nature of the data set: Antiproliferative activity against human SKOV3 cells after 72 hrs by MTT assay. It is filed as functional, cell-based. Conditions: SK-OV-3, 72 h.
Data set [4] is described as follows: Selectivity ratio, ratio of IC50 for human WI38 cells to IC50 for human SKOV3 cells. It is filed as toxicity. Conditions: WI38 cells versus SKOV3 cells, read-out: Ratio IC50.
For data set [5], the system named is WI-38. Nature of the data set: Cytotoxicity against human WI38 cells after 72 hrs by MTT assay. It is filed as cell-based. Conditions: WI-38, 72 h.
The nature of data set [6]: Oral bioavailability in Sprague-Dawley rat at 10 mg/kg by non-compartmental analysis. It is filed as ADME, organism-based. The conditions noted are these: in vivo.
Data set [7] can be described thus: Half-life in Sprague-Dawley rat at 2 mg/kg, iv by non-compartmental analysis. The data set is classed as ADME, organism-based. Conditions: in vivo.
Data set [8] in a line: Tmax in Sprague-Dawley rat at 10 mg/kg, po by non-compartmental analysis. The conditions noted are these: in vivo. It is filed as ADME, organism-based.
The nature of data set [9]: Efflux ratio of apparent permeability from basolateral to apical over apical to basolateral side in human Caco2 cells. The data set is classed as ADME, cell-based. Conditions: Caco-2.
Data set [10] can be described thus: Apparent permeability across basolateral to apical side in human Caco2 cells. It is filed as ADME, cell-based. The conditions noted are these: Caco-2.
Data set [11] is described as follows: Cmax in Sprague-Dawley rat at 10 mg/kg, po by non-compartmental analysis. The data set is classed as ADME, organism-based. On the set-up: dose 10 mg/kg, route oral. The conditions noted are these: in vivo.
Data set [12] deals with SW480. Description: Antitumor activity against human SW480 cells xenografted in ip dosed BALB/c mouse assessed as reduction in tumor volume administered once daily for 33 days and measured every 3 days during compound dosing. It is filed as functional, organism-based.
Data set [13] deals with Leucine--tRNA ligase, cytoplasmic (Homo sapiens) (UniProt Q9P2J5). Description: Inhibition of human leucyl-tRNA synthetase.
Data set [14] can be described thus: AUC infinity in Sprague-Dawley rat at 10 mg/kg, po by non-compartmental analysis. It is filed as ADME, organism-based. Further details: dose 10 mg/kg, time infinity, route oral. Conditions: in vivo.
Data set [15] in a line: Half-life in Sprague-Dawley rat at 10 mg/kg, po by non-compartmental analysis. The conditions noted are these: in vivo. It is filed as ADME, organism-based.
The nature of data set [16]: Apparent permeability across apical to basolateral side in human Caco2 cells. It is filed as ADME, cell-based. The conditions noted are these: Caco-2.
Data set [17] is described as follows: Clearance in Sprague-Dawley rat at 2 mg/kg, iv by non-compartmental analysis. The data set is classed as ADME, organism-based. Conditions: in vivo.
The nature of data set [18]: Volume of distribution at steady state in Sprague-Dawley rat at 2 mg/kg, iv by non-compartmental analysis. Conditions: in vivo, read-out: Vdss. It is filed as ADME, organism-based.
Data set [19] can be described thus: Toxicity in BALB/c mouse xenografted with human SW480 cells assessed as reduction in body weight at 2 to 10 mg/kg, ip administered once daily for 33 days and measured every 3 days during compound dosing. It is filed as organism-based. Conditions: in vivo.
Data set [20] can be described thus: AUC infinity in Sprague-Dawley rat at 2 mg/kg, iv by non-compartmental analysis. The data set is classed as ADME, organism-based. Further details: dose 2 mg/kg, time infinity, route intravenous. Conditions: in vivo.
Data set [21] relates to SW480. Nature of the data set: Antitumor activity against human SW480 cells xenografted in ip dosed BALB/c mouse assessed as reduction in tumor weight administered once daily for 33 days and measured every 3 days during compound dosing. The data set is classed as functional, organism-based.
Data set [22] concerns NCI-H460. Nature of the data set: Induction of apoptosis in human NCI-H460 cells assessed as increase in cleaved caspase-9 expression at low concentration after 48 hrs by Western blot analysis. It is filed as functional, cell-based.
Data set [23] concerns NCI-H460. Description: Induction of apoptosis in human NCI-H460 cells assessed as increase in cleaved PARP expression at low concentration after 48 hrs by Western blot analysis. The data set is classed as functional, cell-based.
In data set [24] the test system is SK-OV-3. Nature of the data set: Induction of apoptosis in human SKOV3 cells assessed as viable cells at 10 uM after 48 hrs by Annexin V-FITC/propidium iodide staining based FACS analysis (reference value: 91%). It is filed as functional. Conditions: SK-OV-3, 48 h, read-out: Activity.
In data set [25] the test system is SK-OV-3. Description: Induction of apoptosis in human SKOV3 cells assessed as viable cells at 1 uM after 48 hrs by Annexin V-FITC/propidium iodide staining based FACS analysis (reference value: 91%). The data set is classed as functional. Conditions: SK-OV-3, 48 h, read-out: Activity.
The subject of data set [26] is SK-OV-3. Description: Induction of apoptosis in human SKOV3 cells assessed as early apoptotic cells at 10 uM after 48 hrs by Annexin V-FITC/propidium iodide staining based FACS analysis (reference value: 1.95%). The data set is classed as functional.
Data set [27] relates to SK-OV-3. Description: Induction of apoptosis in human SKOV3 cells assessed as early apoptotic cells at 1 uM after 48 hrs by Annexin V-FITC/propidium iodide staining based FACS analysis (reference value: 1.95%). It is filed as functional.
The subject of data set [28] is SK-OV-3. Nature of the data set: Induction of apoptosis in human SKOV3 cells assessed as necrotic cells at 10 uM after 48 hrs by Annexin V-FITC/propidium iodide staining based FACS analysis (reference value: 1.06%). The data set is classed as functional.
Data set [29] has as its system SK-OV-3. Nature of the data set: Induction of apoptosis in human SKOV3 cells assessed as necrotic cells at 3 uM after 48 hrs by Annexin V-FITC/propidium iodide staining based FACS analysis (reference value: 1.06%). It is filed as functional.
Data set [30] relates to SK-OV-3. Description: Induction of apoptosis in human SKOV3 cells assessed as late apoptotic cells at 3 uM after 48 hrs by Annexin V-FITC/propidium iodide staining based FACS analysis (reference value: 5.97%). It is filed as functional.
In data set [31] the test system is SK-OV-3. Nature of the data set: Induction of apoptosis in human SKOV3 cells assessed as necrotic cells at 1 uM after 48 hrs by Annexin V-FITC/propidium iodide staining based FACS analysis (reference value: 1.06%). The data set is classed as functional.
In data set [32] the test system is SK-OV-3. Description: Induction of apoptosis in human SKOV3 cells after 48 hrs by Annexin V-FITC/propidium iodide staining based FACS analysis (reference value: 1.06%). The data set is classed as functional, cell-based.
Data set [33] has as its system SK-OV-3. Nature of the data set: Induction of apoptosis in human SKOV3 cells assessed as late apoptotic cells at 1 uM after 48 hrs by Annexin V-FITC/propidium iodide staining based FACS analysis (reference value: 5.97%). It is filed as functional.
The subject of data set [34] is SK-OV-3. Nature of the data set: Induction of apoptosis in human SKOV3 cells assessed as late apoptotic cells at 10 uM after 48 hrs by Annexin V-FITC/propidium iodide staining based FACS analysis (reference value: 5.97%). The data set is classed as functional.
For data set [35], the system named is NCI-H460. Nature of the data set: Induction of apoptosis in human NCI-H460 cells assessed as increase in cleaved caspase-3 expression at low concentration after 48 hrs by Western blot analysis. The data set is classed as functional, cell-based.
For data set [36], the system named is SK-OV-3. Description: Induction of apoptosis in human SKOV3 cells assessed as early apoptotic cells at 3 uM after 48 hrs by Annexin V-FITC/propidium iodide staining based FACS analysis (reference value: 1.95%). The data set is classed as functional.
For data set [37], the system named is SK-OV-3. Nature of the data set: Induction of apoptosis in human SKOV3 cells assessed as viable cells at 3 uM after 48 hrs by Annexin V-FITC/propidium iodide staining based FACS analysis (reference value: 91%). Conditions: SK-OV-3, 48 h, read-out: Activity. It is filed as functional.
Data set [38] has as its system SK-OV-3. Nature of the data set: Inhibition of colony formation in human SKOV3 cells at 0.0625 to 1 uM supplemented with fresh medium containing compound every 72 hrs for 2 weeks by crystal violet staining based assay. It is filed as functional, cell-based.

Active and inactive are the calls of the source. The rule behind the calls is not given here.

Chain of Leucine--tRNA ligase, cytoplasmic (Homo sapiens) (Q9P2J5 whole entry, looked up): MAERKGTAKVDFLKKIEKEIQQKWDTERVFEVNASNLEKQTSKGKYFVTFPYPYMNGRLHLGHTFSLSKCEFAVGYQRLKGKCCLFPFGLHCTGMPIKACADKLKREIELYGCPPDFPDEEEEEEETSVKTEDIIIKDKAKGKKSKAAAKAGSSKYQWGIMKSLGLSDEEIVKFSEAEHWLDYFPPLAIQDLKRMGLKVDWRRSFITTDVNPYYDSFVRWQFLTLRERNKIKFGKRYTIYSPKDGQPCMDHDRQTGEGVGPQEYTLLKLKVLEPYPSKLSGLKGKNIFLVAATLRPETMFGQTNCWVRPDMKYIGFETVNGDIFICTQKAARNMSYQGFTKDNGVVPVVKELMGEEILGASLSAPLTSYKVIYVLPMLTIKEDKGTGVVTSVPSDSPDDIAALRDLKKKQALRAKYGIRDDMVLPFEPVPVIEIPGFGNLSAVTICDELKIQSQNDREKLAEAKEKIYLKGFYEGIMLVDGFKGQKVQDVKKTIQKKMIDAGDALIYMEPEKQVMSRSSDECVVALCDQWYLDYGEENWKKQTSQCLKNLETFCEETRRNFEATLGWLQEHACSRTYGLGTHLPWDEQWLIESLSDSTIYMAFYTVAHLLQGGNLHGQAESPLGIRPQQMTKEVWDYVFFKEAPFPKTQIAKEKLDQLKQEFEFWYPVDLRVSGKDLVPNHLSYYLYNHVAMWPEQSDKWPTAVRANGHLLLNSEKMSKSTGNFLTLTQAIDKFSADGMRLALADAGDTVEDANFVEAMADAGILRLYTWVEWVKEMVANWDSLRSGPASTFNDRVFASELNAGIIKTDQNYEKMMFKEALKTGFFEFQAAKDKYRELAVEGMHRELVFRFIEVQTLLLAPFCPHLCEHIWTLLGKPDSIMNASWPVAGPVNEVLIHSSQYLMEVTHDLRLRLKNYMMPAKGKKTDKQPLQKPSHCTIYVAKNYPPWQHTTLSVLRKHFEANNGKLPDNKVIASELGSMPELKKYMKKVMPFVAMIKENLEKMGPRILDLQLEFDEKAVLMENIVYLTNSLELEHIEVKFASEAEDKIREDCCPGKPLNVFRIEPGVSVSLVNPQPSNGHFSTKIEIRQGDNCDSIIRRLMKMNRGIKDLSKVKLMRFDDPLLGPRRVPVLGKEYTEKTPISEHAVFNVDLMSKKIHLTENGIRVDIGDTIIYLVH

Take `O=C(CCc1cccc2c1B(O)OC2)Nc1cccc(-c2ccc(F)cc2)c1`: the IC50 in data set [1] was 250 nM; in data set [2], 550 nM; in data set [3] it was 93 nM; in data set [5] it was 4100 nM. Besides, the selectivity ratio in data set [4] is 44.
The matching figures for `O=C(CCc1cccc2c1B(O)OC2)Nc1ccccc1`: 230 nM, 350 nM, 200 nM, 30000 nM and 150.
For `CC(=O)c1ccc(-c2cccc(NC(=O)CCc3cccc4c3B(O)OC4)c2)cc1`, the bioavailability in [6] turned out to be 4.6%. Further, the results for the half-life in data set [7] and in [15] were 0.6 h and 2 h, respectively. For the same compound, the IC50 in [1] turned out to be 56 nM; in data set [2], 110 nM; in data set [3], 21 nM; in data set [5], 3700 nM. In addition, the Tmax in data set [8] was found to be 0.25 h. Besides, the efflux ratio in data set [9] stood at 0.56. In addition, the Papp B→A in [10] was 2.23 ×10⁻⁶ cm/s. In data set [11], this compound returned a Cmax of 373 ng/mL. In addition, the Activity result in [12] was “Dose-dependent effect”; in data set [19], “Non-Toxic”; in data set [21] it was “Dose-dependent effect”. Besides, the selectivity ratio in data set [4] is 180. Besides, the inhibition entry in [13] is “inactive”. Also, the AUC(0-inf) in data set [14] was found to be 459 ng·h/mL; in [20], 1920 ng·h/mL. Besides, in data set [16], the Papp A→B turned out to be 3.95 ×10⁻⁶ cm/s. The clearance in data set [17] was 17.5 mL/min/kg. In addition, the Vd in data set [18] was 0.882 L/kg.
Take `COc1cccc(-c2cccc(NC(=O)CCc3cccc4c3B(O)OC4)c2)c1`: the result in data set [22], in [23] and in data set [35] was Active. This compound registered a bioavailability in data set [6] of 19.5%. Besides, the half-life in [7] was 1.4 h; in data set [15] it was 2.2 h. In addition, the IC50 in [1] came out at 37 nM; in [2], 260 nM; in [3] it was 33 nM; in data set [5] it was 3200 nM. For the same compound, the viability at 10 µM in data set [24] stood at 48.1%. For the same compound, the Tmax in data set [8] stood at 0.2 h. In addition, the viability at 1 µM in data set [25] amounted to 71%. Moreover, in data set [9], the efflux ratio is 1.36. In addition, the Activity in data set [26] is on record as 20.6%; in data set [27] it was 12.8%; in data set [28] it was 0.505%; in data set [29], 0.593%; in [30], 17.1%; in data set [31], 0.808%. The Activity result in data set [32] is “Dose-dependent effect”; in [12] it was “Dose-dependent effect”; in data set [33], 15.4%; in data set [34], 30.7%; in data set [36], 14.5%; in data set [19], “Non-Toxic”. Also, the Activity result in data set [21] was “Dose-dependent effect”. Moreover, the Papp B→A in data set [10] worked out at 26.5 ×10⁻⁶ cm/s. In data set [11], this compound came in with a Cmax of 434 ng/mL. Further, the selectivity ratio in data set [4] worked out at 100. In data set [13], the inhibition entry was “inactive”. Also, the AUC(0-inf) in data set [14] stood at 547 ng·h/mL; in data set [20] it was 551 ng·h/mL. In data set [37], the viability at 3 µM was 67.8%. For the same compound, the Papp A→B in data set [16] came out at 19.5 ×10⁻⁶ cm/s. In [17], this compound gave a clearance of 62.5 mL/min/kg. Besides, the inhibition entry in data set [38] was “Active”. In addition, the Vd in data set [18] turned out to be 7.63 L/kg.
